The assay addresses TNFα (Homo sapiens, UniProt P01375). The assay can be described thus: TNFα Induced HEK Blue Cellular Assay. The format is cell-based. The settings on record: HEK Blue TNFα reporter cells, TNFα 100 pg/ml, 24 hrs at 37° C., secreted alkaline phosphatase (QUANTI-Blue) read at 620 nm; read-out: IC50 value. An outline of the steps:
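IC50 fitted with a 4-parameter logistic model from % inhibition, normalised to DMSO controls with and without stimulation. Readout: QUANTI-Blue SEAP at 620 nm after 24 h, 37 °C exposure to TNFα (100 pg/ml final) and test compound at […]–0.5 nM final.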
TNFα, sequence (P01375 77-233 limits assumed): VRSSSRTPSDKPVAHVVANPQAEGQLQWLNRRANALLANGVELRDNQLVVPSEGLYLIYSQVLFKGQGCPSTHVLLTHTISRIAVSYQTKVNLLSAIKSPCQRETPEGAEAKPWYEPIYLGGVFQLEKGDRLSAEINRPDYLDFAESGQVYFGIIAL
For orientation: IC50 means the midpoint of a concentration-inhibition curve. With `CN1C(=O)c2cccc(OC(F)F)c2[C@H]2C[C@@H]1c1nc3ccc(-c4ccc(OCP(C)(C)=O)cc4)cc3n12` [Example 38, (1R,11R)-18-(difluoromethoxy)-5-{4-[(dimethylphosphoryl)methoxy]phenyl}-12-methyl-2,9,12-triazapentacyclo[9.8.1.0^{2,10}.0^{3,8}.0^{14,19}]icosa-3(8),4,6,9,14(19),15,17-heptaen-13-one], the IC50 was below 100 nM. As for `CN1C(=O)c2cccc(OC(F)F)c2[C@H]2C[C@@H]1c1nc3ccc(-c4ccc(OCCP(C)(C)=O)nc4)cc3n12` [Example 39, (1R,11R)-18-(difluoromethoxy)-5-{6-[2-(dimethylphosphoryl)ethoxy]pyridin-3-yl}-12-methyl-2,9,12-triazapentacyclo[9.8.1.0^{2,10}.0^{3,8}.0^{14,19}]icosa-3(8),4,6,9,14(19),15,17-heptaen-13-one], the figure is below 100 nM. As for `CN1C(=O)c2cccc(OC(F)F)c2[C@H]2C[C@@H]1c1nc3ccc(-c4ccc(OCCCP(C)(C)=O)nc4)cc3n12` [Example 40, (1R,11R)-18-(difluoromethoxy)-5-{6-[3-(dimethylphosphoryl)propoxy]pyridin-3-yl}-12-methyl-2,9,12-triazapentacyclo[9.8.1.0^{2,10}.0^{3,8}.0^{14,19}]icosa-3(8),4,6,9,14(19),15,17-heptaen-13-one], the figure is 100 to 1000 nM; as for `CP(C)(=O)c1ccc(-c2ccc3nc4n(c3c2)[C@@H]2C[C@H]4NC(=O)c3cccc(OC(F)F)c32)c(Cl)c1` [Example 41, (1R,11R)-5-[2-chloro-4-(dimethylphosphoryl)phenyl]-18-(difluoromethoxy)-2,9,12-triazapentacyclo[9.8.1.0^{2,10}.0^{3,8}.0^{14,19}]icosa-3(8),4,6,9,14(19),15,17-heptaen-13-one], below 100 nM. As to `CP(C)(=O)COc1ncc(-c2ccc3nc4n(c3c2)[C@@H]2C[C@H]4NC(=O)c3cccc(OC(F)F)c32)s1` [Example 42, (1R,11R)-18-(difluoromethoxy)-5-{2-[(dimethylphosphoryl)methoxy]-1,3-thiazol-5-yl}-2,9,12-triazapentacyclo[9.8.1.0^{2,10}.0^{3,8}.0^{14,19}]icosa-3(8),4,6,9,14(19),15,17-heptaen-13-one], the IC50 was below 100 nM.

On to `CP(C)(=O)c1ccc(-c2ccc3nc4n(c3c2)[C@@H]2C[C@H]4NC(=O)c3cccc(OC(F)F)c32)cc1F` [Example 43, (1R,11R)-18-(difluoromethoxy)-5-[4-(dimethylphosphoryl)-3-fluorophenyl]-2,9,12-triazapentacyclo[9.8.1.0^{2,10}.0^{3,8}.0^{14,19}]icosa-3(8),4,6,9,14(19),15,17-heptaen-13-one], for which the IC50 is below 100 nM.

For `CCN1C(=O)c2cccc(OC(F)F)c2[C@H]2C[C@@H]1c1nc3ccc(-c4ccc(OCP(C)(C)=O)cc4)cc3n12` [Example 44, (1R,11R)-18-(difluoromethoxy)-5-{4-[(dimethylphosphoryl)methoxy]phenyl}-12-ethyl-2,9,12-triazapentacyclo[9.8.1.0^{2,10}.0^{3,8}.0^{14,19}]icosa-3(8),4,6,9,14(19),15,17-heptaen-13-one], the IC50 was below 100 nM. Next, `CCN1C(=O)c2cccc(OC(F)F)c2[C@H]2C[C@@H]1c1nc3ccc(-c4ccc(P(C)(C)=O)c(F)c4)cc3n12` [Example 45, (1R,11R)-18-(difluoromethoxy)-5-[4-(dimethylphosphoryl)-3-fluorophenyl]-12-ethyl-2,9,12-triazapentacyclo[9.8.1.0^{2,10}.0^{3,8}.0^{14,19}]icosa-3(8),4,6,9,14(19),15,17-heptaen-13-one]: below 100 nM; `CCN1C(=O)c2cccc(OC(F)F)c2[C@H]2C[C@@H]1c1nc3ccc(-c4cc(F)c(P(C)(C)=O)c(F)c4)cc3n12` [Example 46, (1R,11R)-18-(difluoromethoxy)-5-[4-(dimethylphosphoryl)-3,5-difluorophenyl]-12-ethyl-2,9,12-triazapentacyclo[9.8.1.0^{2,10}.0^{3,8}.0^{14,19}]icosa-3(8),4,6,9,14(19),15,17-heptaen-13-one]: below 100 nM. As for `CP(C)(=O)c1ccc(-c2ccc3nc4n(c3c2)[C@@H]2C[C@H]4N(C3CC3)C(=O)c3cccc(OC(F)F)c32)cn1` [Example 47, (1R,11R)-12-cyclopropyl-18-(difluoromethoxy)-5-[6-(dimethylphosphoryl)pyridin-3-yl]-2,9,12-triazapentacyclo[9.8.1.0^{2,10}.0^{3,8}.0^{14,19}]icosa-3(8),4,6,9,14(19),15,17-heptaen-13-one], the figure is below 100 nM. Next, `CP(C)(=O)c1ccc(-c2ccc3nc4n(c3c2)[C@@H]2C[C@H]4N(C3CC3)C(=O)c3cccc(OC(F)F)c32)cc1F` [Example 48, (1R,11R)-12-cyclopropyl-18-(difluoromethoxy)-5-[4-(dimethylphosphoryl)-3-fluorophenyl]-2,9,12-triazapentacyclo[9.8.1.0^{2,10}.0^{3,8}.0^{14,19}]icosa-3(8),4,6,9,14(19),15,17-heptaen-13-one]: below 100 nM; `CCN1C(=O)c2cccc(OC(F)F)c2[C@H]2C[C@@H]1c1nc3ccc(-c4ccc(P(C)(C)=O)cc4)cc3n12` [Example 49, (1R,11R)-18-(difluoromethoxy)-5-[4-(dimethylphosphoryl)phenyl]-12-ethyl-2,9,12-triazapentacyclo[9.8.1.0^{2,10}.0^{3,8}.0^{14,19}]icosa-3(8),4,6,9,14(19),15,17-heptaen-13-one]: below 100 nM; `CN1C(=O)c2cccc(OC(F)F)c2[C@H]2C[C@@H]1c1nc3ccc(-c4ccc(NP(C)(C)=O)cc4)cc3n12` [Example 50, (1R,11R)-18-(difluoromethoxy)-5-{4-[(dimethylphosphoryl)amino]phenyl}-12-methyl-2,9,12-triazapentacyclo[9.8.1.0^{2,10}.0^{3,8}.0^{14,19}]icosa-3(8),4,6,9,14(19),15,17-heptaen-13-one]: below 100 nM.

As for `CCP(=O)(CC)c1ccc(-c2ccc3nc4n(c3c2)[C@@H]2C[C@H]4NC(=O)c3cccc(OC(F)F)c32)cc1F` [Example 51, (1R,11R)-5-[4-(diethylphosphoryl)-3-fluorophenyl]-18-(difluoromethoxy)-2,9,12-triazapentacyclo[9.8.1.0^{2,10}.0^{3,8}.0^{14,19}]icosa-3(8),4,6,9,14(19),15,17-heptaen-13-one], the IC50 is below 100 nM.

For the compound `[2H]C([2H])([2H])N1C(=O)c2cccc(OC(F)F)c2[C@H]2C[C@@H]1c1nc3ccc(-c4ccc(P(C)(C)=O)c(F)c4F)cc3n12` [Example 52, (7R,14R)-1-(difluoromethoxy)-11-(4-(dimethylphosphoryl)-2,3-difluorophenyl)-6-(methyl-d3)-6,7-dihydro-7,14-methanobenzo[f]benzo[4,5]imidazo[1,2-a][1,4]diazocin-5(14H)-one], the IC50 was below 100 nM.

Take `[2H]C([2H])([2H])N1C(=O)c2cccc(OC(F)F)c2[C@H]2C[C@@H]1c1nc3ccc(-c4ccc(P(C)(C)=O)cc4F)cc3n12` [Example 53, (7R,14R)-1-(difluoromethoxy)-11-(4-(dimethylphosphoryl)-2-fluorophenyl)-6-(methyl-d3)-6,7-dihydro-7,14-methanobenzo[f]benzo[4,5]imidazo[1,2-a][1,4]diazocin-5(14H)-one]: the IC50 was below 100 nM. As to `[2H]C([2H])([2H])N1C(=O)c2cccc(OC(F)F)c2[C@H]2C[C@@H]1c1nc3ccc(-c4cc(F)c(P(C)(C)=O)cc4F)cc3n12` [Example 54, (7R,14R)-1-(difluoromethoxy)-11-(4-(dimethylphosphoryl)-2,5-difluorophenyl)-6-(methyl-d3)-6,7-dihydro-7,14-methanobenzo[f]benzo[4,5]imidazo[1,2-a][1,4]diazocin-5(14H)-one], the IC50 was below 100 nM. Next, `CN1C(=O)c2cccc(OC(F)F)c2[C@H]2C[C@@H]1c1nc3cc(F)c(-c4ccc(P(C)(C)=O)c(F)c4F)cc3n12` [Example 55, (1R,11R)-18-(difluoromethoxy)-5-[4-(dimethylphosphoryl)-2,3-difluorophenyl]-6-fluoro-12-methyl-2,9,12-triazapentacyclo[9.8.1.0^{2,10}.0^{3,8}.0^{14,19}]icosa-3(8),4,6,9,14(19),15,17-heptaen-13-one]: below 100 nM; `CN1C(=O)c2cccc(OC(F)F)c2[C@H]2C[C@@H]1c1nc3ccc(-c4cc(F)c(P(C)(C)=O)cc4F)cc3n12` [Example 56, (1R,11R)-18-(difluoromethoxy)-5-[4-(dimethylphosphoryl)-2,5-difluorophenyl]-12-methyl-2,9,12-triazapentacyclo[9.8.1.0^{2,10}.0^{3,8}.0^{14,19}]icosa-3(8),4,6,9,14(19),15,17-heptaen-13-one]: below 100 nM; `CN1C(=O)c2cccc(OC(F)F)c2[C@H]2C[C@@H]1c1nc3cc(F)c(-c4ccc(P(C)(C)=O)c(F)c4)cc3n12` [Example 57, (1R,11R)-18-(difluoromethoxy)-5-[4-(dimethylphosphoryl)-3-fluorophenyl]-6-fluoro-12-methyl-2,9,12-triazapentacyclo[9.8.1.0^{2,10}.0^{3,8}.0^{14,19}]icosa-3(8),4,6,9,14(19),15,17-heptaen-13-one]: below 100 nM. As for `CN1C(=O)c2cccc(OC(F)F)c2[C@H]2C[C@@H]1c1nc3cc(F)c(-c4ccc(P(C)(C)=O)cc4F)cc3n12` [Example 58, (1R,11R)-18-(difluoromethoxy)-5-[4-(dimethylphosphoryl)-2-fluorophenyl]-6-fluoro-12-methyl-2,9,12-triazapentacyclo[9.8.1.0^{2,10}.0^{3,8}.0^{14,19}]icosa-3(8),4,6,9,14(19),15,17-heptaen-13-one], the figure is below 100 nM.

Values taken from patent US12384808B2, “Modulators of TNF-α activity” (Forward Therapeutics, Inc., priority 2022, dated 2025).
